Read-outs that look alike come from different tables or passages of the source. Bridges are numbered along the chain shown (N, C = ends). Primed or numbered codes have the meaning given here. [ ]: non-standard residue; d: D form. The star is where a group is joined. DOTA = O=C(O)CN1CCN(CC(=O)O)CCN(CC(=O)*)CCN(CC(=O)O)CC1; Lys(Me3) = C[N+](C)(C)CCCC[C@H](N)C(=O)O; Cit = NC(=O)NCCC[C@H](N)C(=O)O; PEG4 = NCCOCCOCCOCCOCCC(=O)O; PEG4′ = not defined here

The target in one series is T1, mouse Nectin-4 (Mus musculus, UniProt Q8R007).
T1 sequence (Q8R007 31-508): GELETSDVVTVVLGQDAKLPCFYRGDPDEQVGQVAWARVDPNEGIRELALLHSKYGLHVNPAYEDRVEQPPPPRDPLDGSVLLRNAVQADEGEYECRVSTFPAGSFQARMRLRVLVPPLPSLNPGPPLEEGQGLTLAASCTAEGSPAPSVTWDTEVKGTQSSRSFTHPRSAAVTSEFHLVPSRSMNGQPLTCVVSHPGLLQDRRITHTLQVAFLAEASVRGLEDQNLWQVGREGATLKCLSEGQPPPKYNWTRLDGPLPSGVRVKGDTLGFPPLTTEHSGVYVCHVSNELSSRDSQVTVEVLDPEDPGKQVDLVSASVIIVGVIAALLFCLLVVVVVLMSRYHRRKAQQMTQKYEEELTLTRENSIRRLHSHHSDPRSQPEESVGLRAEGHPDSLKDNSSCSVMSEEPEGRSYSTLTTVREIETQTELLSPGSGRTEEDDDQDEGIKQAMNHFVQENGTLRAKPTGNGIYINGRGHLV
The experiment in a line: Surface plasmon resonance (Biacore), 1:1 binding model, mouse Nectin-4. Particulars: SPR, 25° C. The method, then: (§1) Peptide binding affinity to the target protein was measured by SPR using an SPR machine, such as a Biacore T200 instrument. The target protein was covalently coupled to a Biacore chip surface using free amine-coupling chemistry (NHS/EDC) and all uncoupled sites were blocked with ethanolamine. Free peptides were flowed over the target protein surface in increasing concentrations to measure association (Ka, 1/Ms^−1)) and dissociation (Kd, s^−1) to calculate the dissociation equilibrium constant (KD) using an appropriate binding model (see, e.g., Nikolas Stroth, J Biol Methods. 2016; 3 (1)).
(§2) In FIGS. 1A, 1B, 2A, and 2B, lines on graphs are labeled from top to bottom, beginning with letter “a.” and the corresponding concentration is noted to the right of the figure.
(§3) (i.e., a conjugate comprising a Nectin-4 peptide of SEQ ID NO: 5 and arranged having an N-terminus comprising ^138La-DOTA-PEG4 and a C-terminus comprising OH). […] In both FIGS. 3A and 3B, lines on graphs were labeled from top to bottom, beginning with letter a, and the corresponding concentration was noted to the right of the figure.
In general terms: SPR reads the build-up and loss of mass on a sensor chip optically.

For another series, the target named is T2, Nectin-4 (Homo sapiens, UniProt Q96NY8).
T2 sequence (Q96NY8 32-510): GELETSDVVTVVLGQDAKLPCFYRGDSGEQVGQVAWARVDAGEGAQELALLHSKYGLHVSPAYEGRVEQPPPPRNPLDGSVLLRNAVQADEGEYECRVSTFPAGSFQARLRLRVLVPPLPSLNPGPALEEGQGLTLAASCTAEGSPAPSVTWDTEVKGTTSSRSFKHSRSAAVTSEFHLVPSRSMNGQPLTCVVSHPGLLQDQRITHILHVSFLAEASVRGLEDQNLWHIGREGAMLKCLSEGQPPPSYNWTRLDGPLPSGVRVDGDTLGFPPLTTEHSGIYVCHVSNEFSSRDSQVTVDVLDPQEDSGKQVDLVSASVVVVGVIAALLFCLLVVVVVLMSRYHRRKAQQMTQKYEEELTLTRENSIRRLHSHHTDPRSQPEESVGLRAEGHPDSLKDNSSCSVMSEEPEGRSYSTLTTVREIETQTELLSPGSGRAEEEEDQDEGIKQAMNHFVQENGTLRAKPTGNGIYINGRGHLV
The experiment in a line: Surface plasmon resonance (Biacore), 1:1 binding model, human Nectin-4. Particulars: SPR, 25° C. As to the method:
as §1, §2, §3

In series [1] the test system is HT-1376 urothelial cancer cells. Kind of series: In vitro cell cytotoxicity assay of 225Ac-radioconjugates (CellTiter-Glo). Type of series: cell-based, human. Conditions: compound radiolabeled with 225Ac, 24 h treatment, 4-5 day regrowth, HT-1376 cells. As to the method:
Cytotoxicity to ^225Ac-radioconjugates was assessed in HT-1376 urothelial cancer cells. Cells were seeded in 96-well plates at densities of 250 to 1000 cells per well two days prior to treatment. On the day of treatment ^225Ac-radioconjugates were diluted in culture medium to concentrations ranging from 0,0001 to 100 μCi/mL and treatment solutions were incubated with cells for 24 h. At the end of the treatment period, the treatment solution was removed, and fresh culture medium was replenished for the regrowth period of the assay that lasted 4-5 day's. At the end of the regrowth period the culture medium was removed and viability was assessed by CellTiter-Glo (Promega, Waltham MA) luminescent assay and the plates were read on a Perkin Elmer Enspire multimode plate reader. Data were normalized to treatment controls and plotted as non-linear sigmoidal dose response curves to determine the effective concentration for 50% reduction in cell viability.
On the technique in general: Cellular ATP, detected with luciferase, serves as a proxy for viable cell number.

The nature of series [2]: Biodistribution of radiolabeled miniprotein conjugates by SPECT/CT, HT-1376-OE xenograft. Particulars: female, mouse, in vivo, iv, Kidneys; for tissue uptake at 4 h: 4 h (% ID/g) Average; for tissue uptake at 22 h: 22 h (% ID/g) Average. As to the method:
6-8 week old female mice were engrafted through subcutaneous injection with cultured 3.0×10^6 HT-1376-OE cells (1:1—Cells:Matrigel). HT-1376-OE is a model cell line that highly expresses Nectin-4. Fourteen (14) days later, the mice were each dosed with a radiolabeled miniprotein, for example at a dose of ˜350 μCi/3.5 μg miniprotein. SPECT and/or CT imaging of the mice was done at timepoints between 15 min to 24 h after the administration of the injected dose, such as 4 h and 22 h (static scanning). Initial SPECT and/or CT rapid dynamic scanning was done at time points between 15 min and 75 min after the administration of the injected dose. For each miniprotein tested, a group of three mice were used, as summarized below in TABLE 16A.

The nature of series [3]: In vivo biodistribution of 111In-labeled miniproteins by SPECT/CT, HT-1376 xenograft. Also on record: species or system mouse. Particulars: female, athymic nude, mouse, in vivo. The method in brief:
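Uptake in % ID/g from maximum intensity projections of SPECT/CT scans, with SPECT in activity units and CT windowed −500 to 4500 HU. Animals carried HT-1376 tumors, a human Nectin-4-expressing line, and were dosed with 111In-labeled miniproteins.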

The nature of series [4]: In vitro metabolic stability in serum/plasma (percent parent remaining, LC-MS). Particulars: mouse. It is filed as in vitro ADME. The method, then: Exemplary miniproteins were spiked into biological matrices at initial concentration between 1-2 μM. Tested matrices were varied by species (mouse, rat, human) and type (plasma, serum, and kidney brush border membrane (kBBM) preparations tested each from 0.625-100 μg/mL protein content). Tested conditions were incubated with miniproteins at 37° C. for 4 h. At collection points of 0, 15, 30, 60, 120, 240 minutes, 50 μL of each condition were quenched by organic solvent (methanol or acetonitrile) or the addition of 4% phosphoric acid solution followed by solid-phase extraction. Fractions of each quenched timepoint were subsequently assayed for parent miniproteins concentration by high resolution LC-MS. Percent-parent-remaining-time plots were constructed from the ratio of each given time collection to the time-zero parent miniprotein. Percent-parent-remaining in mouse serum and plasma for exemplary miniproteins are recorded in TABLE 11.

In the case of “Ac-CEYDEEFFAGLKRLRGGDICYYIKKKFDKVPDLCIEEILDKLGC-OH (disulfide 1-34, 20-44) [Compound C9]”, on mouse Nectin-4, the affinity, expressed as Kd, was 7.82 nM and the “kd for mouse Nectin-4” value worked out at 0.02134 s⁻¹. Moreover, at Nectin-4, the Kd (in general, the equilibrium constant for the complex coming apart) turned out to be 7.5 nM and the “kd for human Nectin-4” value stood at 0.02271 s⁻¹.
For the substance “C214 ({DOTA-PEG4′}-CEYDEEFFTALKRLRGGDICYYIKKKFDYLPKLCIEEILDNLGC-NH2; disulfide 1-34, 20-44) [Compound C214]”, in series [1], the “EC50 (microcurie/milliliter) for 225Ac radioconjugates” value was 0.014 microcurie/milliliter.
For “{DOTA-PEG4}-CDYDEQFFTALA[Cit]LRGGDICEYIQA[Lys(Me3)]FQYLPGLCIEEILDNLGCS-OH (disulfide 1-34, 20-44 (inferred)) [Compound C260]”, in series [2], the tissue uptake at 4 h amounted to 11.6 %ID/g and the tissue uptake at 22 h came to 6.92 %ID/g. In series [3], the tissue uptake at 4 h was 12.8 %ID/g and the tissue uptake at 24 h stood at 7.36 %ID/g. Moreover, the half-life (as a rule, the time in which the quantity being followed falls by half) in series [4] is 11.2 h. The half-life in series [4] (plasma) is more than 12 h.
As for “{DOTA-PEG4}-CEYDEEFFAGLKRLRGGDICYYIKKKFDKVPDLCIEEILDKLGC-OH (disulfide 1-34, 20-44) [Compound C12]”, the “kd for mouse Nectin-4” value on mouse Nectin-4 came to 0.02625 s⁻¹. In addition, the “kd for human Nectin-4” value on Nectin-4 is 0.01697 s⁻¹.
In the same order, the values of “{DOTA-PEG4}-CEYDEEFFAGLKRLRGGDICYYIKKKFDKVPDLCIEEILDKLGC-OH (disulfide 1-34, 20-44) [Compound C91]” are 0.02817 s⁻¹ and 0.02966 s⁻¹.
Turning to “{DOTA-PEG4}-CEYDEEFFTALARLRGGDICQYIQAKFQYLPGQCIEEILDNLGCS-OH (disulfide 1-34, 20-44) [Compound C244]”, the results for the tissue uptake at 4 h in series [2] and in series [3] were 29.5 %ID/g and 27.7 %ID/g, respectively. In series [2], this substance came in with a tissue uptake at 22 h of 17.8 %ID/g. Moreover, in series [3], the tissue uptake at 24 h was 15.9 %ID/g. The half-life in series [4] and in series [4] (plasma) was more than 12 h throughout.
Regarding “{DOTA-PEG4}-CEYDEQFFTALKALRGGDICYYIQASFNYLPDLCIEEILDNLGCS-OH (disulfide 1-34, 20-44 (inferred)) [Compound C113]”, the “EC50 (microcurie/milliliter) for 225Ac radioconjugates” value in series [1] was found to be 0.042 microcurie/milliliter. Also, in series [3] (111In-labeled miniprotein, SPECT/CT, kidneys, 4 h post-dosing, n=3 mice, read-out: Biodistribution, Kidneys, 4 h (% ID/g) Average), the tissue uptake at 4 h is 87.9 %ID/g. Besides, the tissue uptake at 24 h in series [3] (111In-labeled miniprotein, SPECT/CT, kidneys, 24 h post-dosing, n=3 mice, read-out: Biodistribution, Kidneys, 24 h (% ID/g) Average) came to 42.7 %ID/g.

Values taken from patent US12427212B2, “Nectin-4 binding miniproteins, conjugates and uses thereof” (Aktis Oncology, Inc., priority 2023, dated 2025).
